Assay results published in PMC6384922, “Potent in Vitro α-Glucosidase Inhibition of Secondary Metabolites Derived from Dryopteris cycadina” (Molecules, 2019).
“And” between values parts separate entries of the source, which are not always exact repeats. Equal values may be shown once. Read-outs that look alike come from different tables or passages of the source.

Tests used:
[1] = biological target: T1, α-glucosidase (EC3.2.1.20) (Saccharomyces cerevisiae, UniProt P07265); assay: biochemical; conditions: for IC50: α-glucosidase, mean ± SEM of three independent readings; for inhibition at 500 µM: read-out: maximum α-glucosidase inhibitory activity (% inhibition)
T1 construct: purchased Sigma Aldrich
Experimental: The α-glucosidase (Saccharomyces cerevisiae) inhibitory assay was carried out with slight modifications according to the method described in [21, 26, 27]. For the evaluation of α-glucosidase inhibitory activity, 10 µl of freshly prepared phosphate buffer (pH 6.8) were plated in triplicate for a micro-well plate with the help of a micropipette. Then, 30 µL of α-glucosidase enzyme with a concentration of 0.017 units/mL of 70% ethanol and 10 µL of test compound solution were added to the same well plate. The plates were then incubated for 15 min at 37 °C and an initial reading was taken at 405 nm using the ELISA micro plate reader. Furthermore, 100 µl of 0.7mM PNPG substrate was added to each well of the plate and again incubated at 37 °C for 30 min, forming a yellow color. The final reading was taken again at λ max 405 nm using the ELISA plate reader. […] Each reading was taken in triplicate. The percent inhibition was calculated using the following formula, % inhibition = [(A negative control − A test sample)/A negative control] × 100, where A is absorbance.
The half-maximal inhibitory concentration values were determined using the Graphpad Prism version 7.0 software (San Diego, CA, USA. All values are represented as mean ± SEM.

[2] = biological target: T1, α-glucosidase (EC3.2.1.20); parameters: method as in PMID 18341288; conditions: cited from earlier work

T1 sequence (P07265 whole entry): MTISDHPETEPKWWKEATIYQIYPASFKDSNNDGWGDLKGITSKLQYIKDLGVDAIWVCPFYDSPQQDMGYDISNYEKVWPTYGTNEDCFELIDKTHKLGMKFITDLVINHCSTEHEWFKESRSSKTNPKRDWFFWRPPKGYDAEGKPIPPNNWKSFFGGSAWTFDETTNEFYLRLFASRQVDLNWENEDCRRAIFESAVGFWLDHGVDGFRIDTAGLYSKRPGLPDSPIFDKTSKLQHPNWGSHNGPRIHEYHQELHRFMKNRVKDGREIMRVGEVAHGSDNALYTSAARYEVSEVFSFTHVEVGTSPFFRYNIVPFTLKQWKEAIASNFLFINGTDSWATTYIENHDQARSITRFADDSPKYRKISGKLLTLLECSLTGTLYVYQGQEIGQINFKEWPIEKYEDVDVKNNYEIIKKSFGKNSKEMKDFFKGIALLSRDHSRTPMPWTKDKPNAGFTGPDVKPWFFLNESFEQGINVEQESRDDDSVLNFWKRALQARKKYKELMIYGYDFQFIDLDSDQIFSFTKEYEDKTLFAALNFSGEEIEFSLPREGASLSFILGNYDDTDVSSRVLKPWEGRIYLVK

Structure (SMILES) | IC50 ([1]; IC50 ± SEM) | inhibition at 500 µM [1] [%] | α-glucosidase inhibitory activity in previous studies [2] | IC50 ([1]; read-out: IC50 ± SEM) [µM]
CC[C@H](CC[C@@H](C)[C@H]1CC[C@H]2[C@@H]3CC=C4C[C@@H](O)CC[C@]4(C)[C@H]3CC[C@]12C)C(C)C [Compound 1, β-Sitosterol] | 143 ± 0.47 µM | 92.9 | inactive | –
CCC(CCC(C)C1CCC2C3CC=C4CC(OC5OC(CO)C(O)C(O)C5O)CCC4(C)C3CCC12C)C(C)C [Compound 2, β-Sitosterol3-O-β-D-glucopyranoside] | – | 92 | – | 314 ± 4.58
Cc1ccc(C2Oc3cc(O)cc(O)c3C(=O)C2O)cc1 (stereo not shown) [Compound 3, 3,5,7-trihydroxy-2-(p-tolyl) chorman-4-one] | 136 µM and 133 µM | 94 | – | –
